Some targets named below: Carbonic anhydrase 4 (Homo sapiens, UniProt P22748); Carbonic anhydrase 6 (Homo sapiens, UniProt P23280); Carbonic anhydrase 2 (Homo sapiens, UniProt P00918); Carbonic anhydrase 1 (Homo sapiens, UniProt P00915).
Common to all, as to experiment: Esterase Activity Assay
Common to all, as to conditions: pH 7.4

The target in a further test is T1, Carbonic anhydrase 3 (Bos taurus, UniProt Q3SZX4).
T1 sequence (Q3SZX4 whole entry): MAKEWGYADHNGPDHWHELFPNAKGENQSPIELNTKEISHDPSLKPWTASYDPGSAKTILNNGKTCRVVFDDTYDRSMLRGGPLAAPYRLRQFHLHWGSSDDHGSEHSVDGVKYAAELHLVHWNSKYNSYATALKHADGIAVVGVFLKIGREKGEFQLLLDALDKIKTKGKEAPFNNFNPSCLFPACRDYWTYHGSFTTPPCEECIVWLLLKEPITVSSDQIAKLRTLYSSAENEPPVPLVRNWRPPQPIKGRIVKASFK

Carbonic anhydrase 6, sequence (P23280 whole entry): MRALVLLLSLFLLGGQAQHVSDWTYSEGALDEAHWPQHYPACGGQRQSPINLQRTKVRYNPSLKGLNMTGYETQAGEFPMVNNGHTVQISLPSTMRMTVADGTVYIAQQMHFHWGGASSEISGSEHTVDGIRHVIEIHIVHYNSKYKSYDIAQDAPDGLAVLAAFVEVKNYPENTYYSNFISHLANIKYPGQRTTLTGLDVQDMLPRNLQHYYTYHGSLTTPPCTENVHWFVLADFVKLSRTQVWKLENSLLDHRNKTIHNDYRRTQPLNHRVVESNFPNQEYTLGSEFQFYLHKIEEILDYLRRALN
Carbonic anhydrase 1, sequence (P00915 whole entry): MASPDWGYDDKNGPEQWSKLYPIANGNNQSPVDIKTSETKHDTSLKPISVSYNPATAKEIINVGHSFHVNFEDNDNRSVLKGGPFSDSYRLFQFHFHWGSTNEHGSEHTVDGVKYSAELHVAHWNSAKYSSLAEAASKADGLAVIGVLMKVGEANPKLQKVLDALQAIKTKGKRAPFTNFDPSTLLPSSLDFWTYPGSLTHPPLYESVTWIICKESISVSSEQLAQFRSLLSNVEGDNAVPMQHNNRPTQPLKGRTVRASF
Carbonic anhydrase 4, sequence (P22748 whole entry): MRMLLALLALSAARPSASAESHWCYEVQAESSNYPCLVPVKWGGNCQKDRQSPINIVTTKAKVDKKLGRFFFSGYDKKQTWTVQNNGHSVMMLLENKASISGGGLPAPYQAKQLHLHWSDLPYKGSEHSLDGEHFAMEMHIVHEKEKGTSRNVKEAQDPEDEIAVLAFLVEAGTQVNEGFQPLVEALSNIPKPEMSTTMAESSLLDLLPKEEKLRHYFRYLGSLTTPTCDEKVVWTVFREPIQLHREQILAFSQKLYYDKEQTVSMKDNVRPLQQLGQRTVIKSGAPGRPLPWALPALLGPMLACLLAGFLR

In the case of `CC(C)(O)[C@@H]1CC[C@](C)([C@H]2[C@@H](O)C[C@@]3(C)C4C[C@H](O[C@@H]5OC(CO)[C@@H](O)C(O)[C@@H]5O)C5C(C)(C)[C@@H](O[C@@H]6OC[C@@H](O)C(O)[C@@H]6O)CC[C@@]56C[C@@]46CC[C@]23C)O1` (stereo partly drawn) [α-CA inhibitor, 8], the Ki (in general, the equilibrium dissociation constant of an inhibitor or competing ligand from its target) on Carbonic anhydrase 4 amounted to 2.75 µM; at Carbonic anhydrase 6, 6.96 µM; on Carbonic anhydrase 2 it was 0.97 µM; on Carbonic anhydrase 1 it was 1.47 µM; on Carbonic anhydrase 3, 1.93 µM.
Regarding `Oc1cccc(O)c1`, the affinity on Carbonic anhydrase 3, expressed as Ki, was 196 µM.
At Carbonic anhydrase 3, `O=c1c(O)c(-c2ccc(O)c(O)c2)oc2cc(O)cc(O)c12` [2-(3,4-dihydroxyphenyl)-3,5,7-trihydroxy-chromone;hydrate] had a Ki of 3.73 µM.
`Oc1ccccc1O` [1,2-Dihydroxybenzene, XI] displayed a Ki at Carbonic anhydrase 3 of 5.79 µM.
As for `CC(C)(O)[C@@H]1CC[C@](C)([C@H]2[C@@H](O)C[C@@]3(C)C4C[C@H](O[C@@H]5OC[C@@H](O)C(O)[C@@H]5O)C5C(C)(C)[C@@H](O[C@@H]6OC[C@@H](O)C(O)[C@@H]6O)CC[C@@]56C[C@@]46CC[C@]23C)O1` (stereo partly drawn) [α-CA inhibitor, 10], the Ki on Carbonic anhydrase 4 was determined as 4.36 µM; on Carbonic anhydrase 6, 9.78 µM; on Carbonic anhydrase 2 it was 1.28 µM; at Carbonic anhydrase 1, 2.21 µM; on Carbonic anhydrase 3, 2.49 µM.
Compound `Oc1cc(O)c2c(c1)O[C@H](c1ccc(O)c(O)c1)[C@@H](O)C2` [(+)-Catechin] had an inhibition constant Ki on Carbonic anhydrase 3 of 9.71 µM.
For `CC(C)(O)[C@@H]1CC[C@](C)([C@H]2[C@@H](O)C[C@@]3(C)C4C[C@H](O[C@@H]5OC(CO)[C@@H](O)C(O)[C@@H]5O)C5C(C)(C)[C@@H](O[C@@H]6OC[C@@H](O)C(O)[C@@H]6O[C@@H]6OC[C@H](O)C(O)[C@@H]6O)CC[C@@]56C[C@@]46CC[C@]23C)O1` (stereo partly drawn) [α-CA inhibitor, 7], the Ki stood at 2.41 µM at Carbonic anhydrase 4; 4.71 µM at Carbonic anhydrase 6; 0.47 µM on Carbonic anhydrase 2; 0.94 µM on Carbonic anhydrase 1; 1.38 µM at Carbonic anhydrase 3.
Taken in the same sequence, the figures for `Oc1cc(O)c2c(c1)O[C@H](c1ccc(O)c(O)c1)[C@H](O)C2` were 3.98 µM, 4.36 µM, 1.24 µM, 2.32 µM and 8.93 µM.

These data come from BindingDB's records for doi:10.3109/14756366.2011.651464 (Ege University, 2013).
